Here are results for 22 compounds from ChEMBL document CHEMBL1156829 (Proc Natl Acad Sci U S A, 2008).

What is called EC50 is the concentration that produces a half-maximal response. The term CC50 denotes the concentration that lowers cell viability or growth by half.

For series [1], the system named is Plasmodium falciparum. As to the kind of experiment: NOVARTIS: Inhibition of Plasmodium falciparum 3D7 (drug-susceptible) proliferation in erythrocyte-based infection assay. In kind it is functional, organism-based. The following applies: Plasmodium falciparum, 3D7.
Series [2] has as its system Plasmodium falciparum. In words: NOVARTIS: Inhibition of Plasmodium falciparum W2 (drug-resistant) proliferation in erythrocyte-based infection assay. In kind it is functional, organism-based. Conditions: Plasmodium falciparum, W2; read-out: EC50.
The nature of series [3]: NOVARTIS: Cytotoxicity against human hepatocellular carcinoma cell line (Huh7). In kind it is toxicity, cell-based, Huh-7. The following applies: Huh7 cells (hepatocellular carcinoma cell line).

As to `CN(C)c1ccc(/C=C2/SC(=Nc3ccc(O)cc3)NC2=O)cc1`, the concentration giving a half-maximal response (EC50) is 2820 nM in series [1] and over 12500 nM in series [2]. This compound also registered a CC50 in series [3] of over 100000 nM.
For `Nc1nc(N)c2cc(S(=O)(=O)N3CCCC3)ccc2n1`, the concentration for a half-maximal effect (EC50) was 58.5 nM in series [1] and over 1250 nM in series [2]. Further, in series [3], the CC50 was 12900 nM.
For `CCSc1sc2sccc2[n+]1CC` the same measures were 944 nM, 833 nM and over 8580 nM.
With `Oc1ccc2cc(-c3nc4ccccc4[nH]3)c3nc4ccccc4n3c2c1`, the results for the EC50 in series [1] and in series [2] were over 1050 nM and 970 nM, respectively. Besides, the cytotoxic concentration (CC50) in series [3] was over 10000 nM.
As for `CSc1nccc(-c2cc(F)cc3c2OC(CNC(=O)C2CC(=O)c4ccccc42)C3)n1` (stereo unspecified), the EC50 was 1800 nM in series [1] and over 969 nM in series [2]. For the same compound, the CC50 in series [3] is over 10000 nM.
The corresponding values for `CCN1CCN(CC=Cc2ccccc2[N+](=O)[O-])CC1` are over 12500 nM, over 9690 nM and over 100000 nM.
Take `Cc1cc(-c2cn[nH]c2C2CCCN(C(=O)Cc3ccccc3F)C2)on1` (stereo unspecified): the concentration giving a half-maximal response (EC50) was over 1250 nM in series [1] and over 969 nM in series [2]. Further, the CC50 in series [3] is over 10000 nM.
As to `CCOc1ccc(C(=O)Nc2cccc(-c3nc4cc(C)ccc4o3)c2C)cc1`, the EC50 is over 1250 nM in series [1] and over 968 nM in series [2]. Moreover, the CC50 in series [3] was over 10000 nM.
The corresponding values for `OC(CN1CCOCC1)Cn1cnc2c(SCc3ccccc3)ncnc21` (stereo unspecified) are over 12500 nM, over 9670 nM and over 100000 nM.
Consider `CCCCCN(CC(=O)Nc1cc(C(C)(C)C)nn1-c1ccc(Cl)c(Cl)c1)C(=O)c1ccc2c(c1)OCO2`, for which the concentration for a half-maximal effect (EC50) in series [1] worked out at 1040 nM; in series [2] it was 966 nM. This compound also displayed a CC50 in series [3] of over 10000 nM.
The corresponding values for `COc1cc(NC(C)CCCN(Cc2ccc(Cl)cc2)C(=O)c2ccc(Cl)cc2Cl)c2ncccc2c1` (stereo unspecified) are 376 nM, 473 nM and 4870 nM.
For `CCCNC(=O)Cn1nc(C)n2c(cc3sccc32)c1=O` the same measures were over 1250 nM, over 971 nM and over 10000 nM.
Turning to `Cc1cn2c3ccccc3n(CCN3CCOCC3)c2n1`, the EC50 was over 2480 nM in series [1] and over 12500 nM in series [2]. In series [3], this compound returned a CC50 of over 100000 nM.
For the compound `CC1CN(C(=O)C(Cc2c[nH]c3ccccc23)NC(=O)CCl)CCN1C(=O)Nc1ccccc1` (stereo unspecified), the results for the EC50 in series [1] and in series [2] were 289 nM and over 1250 nM, respectively. The compound also came in with a CC50 in series [3] of over 10000 nM.
For `Cc1ccc(N2C(=O)C3C(C2=O)C2(c4ccccc4)C(=O)C3(c3ccccc3)C(c3ccccc3)=C2c2ccccc2)c([N+](=O)[O-])c1` (stereo unspecified) the same measures were 2640 nM, over 12500 nM and over 100000 nM.
As for `CCNC1=C(C(=O)c2ccccc2)N(CC(=O)c2ccc(Br)cc2)S(=O)(=O)c2ccccc21`, the concentration for a half-maximal effect (EC50) was over 1250 nM in series [1] and 966 nM in series [2]. Besides, the CC50 in series [3] is over 10000 nM.
The corresponding values for `CC1CCCC(NC(=O)C2N(CCN3CCCCC3C)C(=O)C3C(C(=O)Nc4cccc(Cl)c4)C4C=CC32O4)C1C` (stereo unspecified) are over 10400 nM, 4610 nM and 47700 nM.
Consider `COc1ccc(CC(=O)Nc2ccc(S(=O)(=O)N3CCCCCC3)cc2)cc1`, for which the 50% effective concentration (EC50) in series [1] is over 12500 nM; in series [2], 9690 nM. This compound had a CC50 in series [3] of over 100000 nM.
On to `Cc1cc([N+](=O)[O-])ccc1-c1ccc(C(=O)Nc2ccc(-c3nc4ccccc4[nH]3)cc2)o1`, for which the results for the EC50 in series [1] and in series [2] were 2790 nM and over 12500 nM, respectively. The CC50 in series [3] was over 100000 nM.
For `CCOc1ccc2nc(C)c(CN(C)Cc3ccccc3)c(O)c2c1` the same measures were over 1250 nM, 969 nM and over 10000 nM.
The corresponding values for `NC(=O)c1ccc(-n2nnnc2SCc2ccc(Cl)cc2)cc1` are 2830 nM, over 12500 nM and over 100000 nM.
Turning to `Nc1nc(N)c2c(OCc3ccc(C(F)(F)F)cc3)cccc2n1`, the 50% effective concentration (EC50) was 782 nM in series [1] and 972 nM in series [2]. In series [3], this compound had a half-maximal cytotoxic concentration (CC50) of over 10000 nM.
